This passage reports T/C results from PubChem BioAssay AID256 (DTP/NCI, 2004).

Several values for one entry are separate records, joined by “and”; a condition that tells them apart may be missing. Identical values can stand only once. Inconclusive results and toxic doses are left out.

This test deals with CD2F1 mice, L1210 leukemia ip, survival T/C. In words: NCI In Vivo Anticancer Drug Screen. Data for tumor model L1210 Leukemia (intraperitoneal) in CD2F1 (CDF1) mice. As to conditions: endpoint: mean survival time, higher = longer survival. The method, boiled down: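 Vehicle-treated tumor-bearing mice served as controls (C) for compound-treated mice (T). Reported figure is T divided by C.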

Where [1] appears, read: dose: 100.0 mg/kg/injection, schedule: Q01DX001 (ip), vehicle: saline.
The mark [2] stands for this setting: dose: 100.0 mg/kg/injection, schedule: Q04DX003 (ip), vehicle: saline.
Setting [3] is: dose: 200.0 mg/kg/injection, schedule: Q01DX001 (ip), vehicle: saline.
Where [4] appears, read: dose: 200.0 mg/kg/injection, schedule: Q04DX003 (ip), vehicle: saline.
Setting [5] is: dose: 400.0 mg/kg/injection, schedule: Q01DX001 (ip), vehicle: saline.
Setting [6] is: dose: 100.0 mg/kg/injection, schedule: Q04DX003 (ip), vehicle: saline with Tween-80.
Where [7] appears, read: dose: 200.0 mg/kg/injection, schedule: Q04DX003 (ip), vehicle: saline with Tween-80.
Setting [8] is: dose: 25.0 mg/kg/injection, schedule: Q01DX009 (ip), vehicle: Klucel (hydroxypropylcellulose) (HPC).
Where [9] appears, read: dose: 50.0 mg/kg/injection, schedule: Q01DX009 (ip), vehicle: Klucel (hydroxypropylcellulose) (HPC).
[10] abbreviates: dose: 100.0 mg/kg/injection, schedule: Q01DX009 (ip), vehicle: Klucel (hydroxypropylcellulose) (HPC).
Where [11] appears, read: dose: 200.0 mg/kg/injection, schedule: Q01DX009 (ip), vehicle: Klucel (hydroxypropylcellulose) (HPC).
The mark [12] stands for this setting: dose: 100.0 mg/kg/injection, schedule: Q01DX009 (ip), vehicle: saline with Tween-80.
[13] abbreviates: dose: 75.0 mg/kg/injection, schedule: Q01DX001 (ip), vehicle: saline.
Where [14] appears, read: dose: 150.0 mg/kg/injection, schedule: Q01DX001 (ip), vehicle: saline.

Consider `CC(=O)Nc1ccc2c(c1)C(=O)c1ccccc1-2`, for which the T/C was 104 % of control (dose: 50.0 mg/kg/injection, schedule: Q01DX001 (ip), vehicle: saline); 101 % of control under setting [1]; 106 % of control (dose: 100.0 mg/kg/injection, schedule: Q01DX009 (ip), vehicle: saline); 87 % of control under setting [2]; 95 % of control under setting [3]; 96 % of control (dose: 200.0 mg/kg/injection, schedule: Q01DX009 (ip), vehicle: saline). The T/C under setting [4] was 94 % of control; the T/C under setting [5] is 87 % of control; the T/C (dose: 400.0 mg/kg/injection, schedule: Q01DX009 (ip), vehicle: saline) is 95 % of control; the T/C (dose: 400.0 mg/kg/injection, schedule: Q04DX003 (ip), vehicle: saline) is 92 % of control.
For the compound `O=S(=O)(F)/C=C/c1ccccc1`, the T/C under setting [6] is 88 % of control and the T/C under setting [7] is 97 % of control.
`O=NN(CCCl)C(=S)NCCCl`: the T/C (dose: 1.87 mg/kg/injection, schedule: Q01DX001 (ip), vehicle: distilled water + Tween-80) is 113 % of control; the T/C (dose: 3.75 mg/kg/injection, schedule: Q01DX001 (ip), vehicle: distilled water + Tween-80) is 115 % of control; the T/C (dose: 15.0 mg/kg/injection, schedule: Q01DX001 (ip), vehicle: distilled water + Tween-80) is 159 % of control and 215 % of control; the T/C (dose: 30.0 mg/kg/injection, schedule: Q01DX001 (ip), vehicle: distilled water + Tween-80) is 318 % of control.
As for `Cc1cn(CC(=O)c2cc3ccccc3[nH]2)c(=O)[nH]c1=O`, the T/C is, setting by setting: (dose: 100.0 mg/kg/injection, schedule: Q04DX002 (ip), vehicle: saline with Tween-80) 93 % of control; (dose: 200.0 mg/kg/injection, schedule: Q04DX002 (ip), vehicle: saline with Tween-80) 93 % of control; (dose: 400.0 mg/kg/injection, schedule: Q04DX002 (ip), vehicle: saline with Tween-80) 101 % of control.
As for `O=S(=O)(NN=C(c1ccccc1)c1ccccc1)c1ccccc1`, the T/C reads like this: (dose: 12.5 mg/kg/injection, schedule: Q01DX009 (ip), vehicle: Klucel (hydroxypropylcellulose) (HPC)) 96 % of control; under setting [8], 100 % of control; under setting [9], 92 % of control; under setting [10], 94 % of control; under setting [11], 92 % of control; (dose: 400.0 mg/kg/injection, schedule: Q01DX009 (ip), vehicle: Klucel (hydroxypropylcellulose) (HPC)) 92 % of control.
On to `CCOc1ccc2ccccc2c1C(=O)N(CCCl)CCCl`, for which the T/C (dose: 25.0 mg/kg/injection, schedule: Q01DX009 (ip), vehicle: saline with Tween-80) was 94 % of control and the T/C under setting [12] was 104 % of control.
Turning to `O=C(O)C1CCC(CC2CCCCC2)CC1` (stereo not drawn), the T/C is, setting by setting: under setting [6], 93 % of control; under setting [7], 94 % of control; (dose: 400.0 mg/kg/injection, schedule: Q04DX003 (ip), vehicle: saline with Tween-80) 104 % of control.
As to `CCCCCC(C)C1(CCCC)NC(C)(C)CC(C)O1` (stereo not drawn), the T/C reads like this: under setting [2], 95 % of control; under setting [4], 90 % of control.
As for `O=C(O)/C(=C\c1ccccc1)c1ccccc1`, the T/C reads like this: under setting [12], 90 % of control; (dose: 200.0 mg/kg/injection, schedule: Q01DX009 (ip), vehicle: saline with Tween-80) 101 % of control; (dose: 400.0 mg/kg/injection, schedule: Q01DX009 (ip), vehicle: saline with Tween-80) 95 % of control.
For the compound `CCOC(=O)CCC(NC(=O)c1ccc(N(CC)Cc2cnc3nc(N)nc(N)c3n2)cc1)C(=O)OCC` (stereo not drawn), the T/C (dose: 1.56 mg/kg/injection, schedule: Q01DX009 (ip), vehicle: Klucel (hydroxypropylcellulose) (HPC)) is 152 % of control.
`CC1CCc2c(nc(C#N)c(=N)n2O)C1` (stereo not drawn): the T/C was 102 % of control (dose: 100.0 mg/kg/injection, schedule: Q04DX003 (ip), vehicle: Klucel (hydroxypropylcellulose) (HPC)); 106 % of control (dose: 200.0 mg/kg/injection, schedule: Q04DX003 (ip), vehicle: Klucel (hydroxypropylcellulose) (HPC)); 98 % of control (dose: 400.0 mg/kg/injection, schedule: Q04DX003 (ip), vehicle: Klucel (hydroxypropylcellulose) (HPC)).
Regarding `Nc1nc(N)c2c(n1)CN(c1ccc(Cl)cc1)C2`, the T/C runs as follows: under setting [13], 104 % of control; under setting [14], 96 % of control; (dose: 300.0 mg/kg/injection, schedule: Q01DX001 (ip), vehicle: saline) 98 % of control.
Regarding `Brc1c2ccccc2c(Br)c2ccccc12`, the T/C reads like this: (dose: 100.0 mg/kg/injection, schedule: Q04DX002 (ip), vehicle: Klucel (hydroxypropylcellulose) (HPC)) 86 % of control; (dose: 200.0 mg/kg/injection, schedule: Q04DX002 (ip), vehicle: Klucel (hydroxypropylcellulose) (HPC)) 114 % of control; (dose: 400.0 mg/kg/injection, schedule: Q04DX002 (ip), vehicle: Klucel (hydroxypropylcellulose) (HPC)) 86 % of control.
Consider `O=C(O)C1CCC(C(=O)O)S1` (stereo not drawn), for which the T/C reads like this: under setting [1], 96 % of control; under setting [3], 101 % of control; under setting [5], 110 % of control.
For the compound `Nc1cc(=O)[nH]c(=S)[nH]1.[Pd]`, the T/C reads like this: (dose: 3.13 mg/kg/injection, schedule: Q04DX003 (ip), vehicle: distilled water + Tween-80) 100 % of control; (dose: 6.25 mg/kg/injection, schedule: Q04DX003 (ip), vehicle: distilled water + Tween-80) 100 % of control; (dose: 12.5 mg/kg/injection, schedule: Q04DX003 (ip), vehicle: distilled water + Tween-80) 103 % of control; (dose: 25.0 mg/kg/injection, schedule: Q04DX003 (ip), vehicle: distilled water + Tween-80) 97 % of control; (dose: 50.0 mg/kg/injection, schedule: Q04DX003 (ip), vehicle: distilled water + Tween-80) 97 % of control; (dose: 100.0 mg/kg/injection, schedule: Q04DX003 (ip), vehicle: distilled water + Tween-80) 96 % of control. Where the note is “dose: 200.0 mg/kg/injection, schedule: Q04DX003 (ip), vehicle: distilled water + Tween-80”, the T/C is 91 % of control.
With `CC(C)OP(=O)(OCCCO)C(Cl)Cl` (stereo not drawn), the T/C was 100 % of control under setting [1], 102 % of control under setting [3] and 102 % of control under setting [5].
With `Cc1cc(C(O)CNC(C)CCn2cnc3c2c(=O)n(C)c(=O)n3C)ccc1O` (stereo not drawn), the T/C reads like this: (dose: 12.5 mg/kg/injection, schedule: Q01DX005 (ip), vehicle: water) 93 % of control; (dose: 25.0 mg/kg/injection, schedule: Q01DX005 (ip), vehicle: water) 96 % of control; (dose: 50.0 mg/kg/injection, schedule: Q01DX005 (ip), vehicle: water) 96 % of control; (dose: 100.0 mg/kg/injection, schedule: Q01DX005 (ip), vehicle: water) 100 % of control; (dose: 200.0 mg/kg/injection, schedule: Q01DX005 (ip), vehicle: water) 93 % of control.
Turning to `CCCCCCCCCCCCCCCC(=O)N(CCC#N)C(C)(C)CCC(C)(C)N(CCC#N)C(=O)CCCCCCCCCCCCCCC`, the T/C is, setting by setting: under setting [8], 95 % of control; under setting [9], 95 % of control; under setting [10], 88 % of control; under setting [11], 88 % of control.
On to `C[N+]1=C(c2ccccc2)CCC(C(C)(C)C)C1` (stereo not drawn), for which the T/C (dose: 37.5 mg/kg/injection, schedule: Q04DX003 (ip), vehicle: saline) is 102 % of control; the T/C under setting [13] is 95 % of control; the T/C (dose: 75.0 mg/kg/injection, schedule: Q04DX003 (ip), vehicle: saline) is 96 % of control; the T/C under setting [14] was 92 % of control; the T/C (dose: 150.0 mg/kg/injection, schedule: Q04DX003 (ip), vehicle: saline) was 100 % of control.
Consider `C[N+]12CCC34C5=CC(=O)C(=O)C=C5[N+]5(C)C(=O)CC6OCC=C(C1)C(CC32)C6C45` (stereo not drawn), for which, under setting [13], the T/C is 106 % of control.
Turning to `CC1=CC(=O)CC(C)C2CC(C(C)C)CC12` (stereo not drawn), the T/C under setting [1] was 101 % of control, the T/C under setting [3] was 100 % of control and the T/C under setting [5] was 105 % of control.
`O=c1scc(-c2ccc([N+](=O)[O-])cc2)s1`: the T/C is, setting by setting: (dose: 12.5 mg/kg/injection, schedule: Q04DX003 (ip), vehicle: Klucel (hydroxypropylcellulose) (HPC)) 104 % of control; (dose: 25.0 mg/kg/injection, schedule: Q04DX003 (ip), vehicle: Klucel (hydroxypropylcellulose) (HPC)) 91 % of control.
